Test results from US20090264384A1, “INDOLE, BENZIMIDAZOLE, AND BENZOLACTAM BORONIC ACID COMPOUNDS, ANALOGS THEREOF AND METHODS OF USE THEREOF” (Nuada, Inc., priority 2004, published 2009).
Like-named read-outs stand apart in the source and are kept apart here.

Assay: Various In Vitro Cell Biology Assays (Example 41, Tables 23-26)
Assay type: cell-based
Conditions: for inhibition at 3 µM: PBMC, read-out: % Inhibition of Control Values; for inhibition at 3 µM / cytotoxicity at 24 h / % Inhibition of Control Values: 3×10^−6 M; for cytotoxicity at 24 h: human, Cell viability (h) (PBMC/24 h), MTT; for % Inhibition of Control Values: IL-6 secretion (h) (PBMC)
Experimental: In each experiment, the respective reference compound was tested concurrently with the test compounds in order to assess the assay suitability. It was tested at several concentrations (for IC50 value determination).
The test compounds were assayed at 3×10^−6 M.
Results. The results are expressed as a percent of control values and as a percent inhibition of control values obtained in the presence of the test compounds.
The IC50 values (concentration causing a half-maximal inhibition of control values) and Hill coefficients (nH) were determined by non-linear regression analysis of the inhibition curves using Hill equation curve fitting, a summary of the data is shown in Table 26. The IC50 value for each reference compound is indicated was determined (data not shown) and was within accepted limits of the historic average ±0.5 log units.

[1] = 24 h, IFN-γ secretion (h) (PBMC), PHA 2 μg/ml, 24 h
[2] = 48 h, IL-10 secretion (h) (PBMC), PHA 3 μg/ml, 48 h
[3] = 24 h, IL-8 secretion (h) (PBMC), LPS 1 μg/ml, 24 h
[4] = 48 h, IL-2 secretion (h) (PBMC), PHA 20 μg/ml, 48 h

Which inhibition at 3 µM [1] does the source give for C[C@@H]1CC2C3CCC4=CC(=O)C=CC4(C)C3(F)[C@@H](O)CC2(C)C1(O)C(=O)CO (stereo partly drawn) [drawing 72] here?
Its inhibition at 3 µM is 68%.

With N#Cc1ncnc2c1ncn2CCCCCB(O)O [drawing 99] as the compound, how does the inhibition at 3 µM [2] read?
The inhibition at 3 µM was 13%.

With N#Cc1ncnc2c1ncn2CCCCCB(O)O [drawing 109] as the compound, how does the cytotoxicity at 24 h read?
Its cytotoxicity at 24 h is 5%.

With N#Cc1ccc2c(ccn2CCCCCB(O)O)c1 [drawing 70] as the compound, how does the inhibition at 3 µM [1] read?
The inhibition at 3 µM was 16%.

With C[C@@H]1CC2C3CCC4=CC(=O)C=CC4(C)C3(F)[C@@H](O)CC2(C)C1(O)C(=O)CO (stereo partly drawn) [drawing 78] as the compound, how does the inhibition at 3 µM (24 h, IL-1 □ secretion (h) (PBMC), LPS 1 μg/ml, 24 h) read?
Its inhibition at 3 µM is -12%.

Which inhibition at 3 µM [3] does the source give for OB(O)CCCCn1c(C(F)(F)F)nc2ccccc21 [drawing 101] here?
Its inhibition at 3 µM is -29%.

For OB(O)CCCCCn1c(-c2cscn2)nc2ccccc21 [drawing 90], which “% Inhibition of Control Values” (LPS 1 μg/ml, 24 h) is on record?
The value was −61%.

Which “% Inhibition of Control Values” (LPS 1 μg/ml, 24 h) does the source give for C[C@@H]1CC2C3CCC4=CC(=O)C=CC4(C)C3(F)[C@@H](O)CC2(C)C1(O)C(=O)CO (stereo partly drawn) [drawing 93] here?
Its value is −70%.

With Nc1nc(Cl)c2ncn(CCCCCB(O)O)c2n1 [drawing 103] as the compound, how does the inhibition at 3 µM [3] read?
The inhibition at 3 µM was 8%.

For OB(O)CCCCn1c(C(F)(F)F)nc2ccccc21 [drawing 82], which inhibition at 3 µM [4] is on record?
The inhibition at 3 µM was 72%.

Which IC50 (TNF-α secretion (h) (PBMC), LPS 1 μg/ml, 24 h) does the source give for OB(O)CCCCCn1c(-c2cscn2)nc2ccccc21 [drawing 111] here?
The IC50 was greater than 3000 nM.

Which cytotoxicity at 24 h does the source give for N#Cc1ccc2c(ccn2CCCCCB(O)O)c1 [drawing 105] here?
The cytotoxicity at 24 h was 0%.

Which inhibition at 3 µM [2] does the source give for N#Cc1ccc2c(ccn2CCCCCB(O)O)c1 [drawing 95] here?
Its inhibition at 3 µM is 36%.

Which results are given for OB(O)CCCCCn1c(-c2cscn2)nc2ccccc21 [CCI-7034]?
% Inhibition of Control Values (LPS 1 μg/ml, 24 h): −89%; inhibition at 3 µM [3]: -32%; inhibition at 3 µM [2]: 42%; cytotoxicity at 24 h: -9%

For OB(O)CCCCn1c(C(F)(F)F)nc2ccccc21 [drawing 106], which cytotoxicity at 24 h is on record?
The cytotoxicity at 24 h was -6%.

With OB(O)CCCCn1c(C(F)(F)F)nc2ccccc21 [drawing 71] as the compound, how does the inhibition at 3 µM [1] read?
Its inhibition at 3 µM is -6%.

For Nc1nc(Cl)c2ncn(CCCCCB(O)O)c2n1 [drawing 73], which inhibition at 3 µM [1] is on record?
Its inhibition at 3 µM is 56%.

For Nc1nc(Cl)c2ncn(CCCCCB(O)O)c2n1 [drawing 84], which inhibition at 3 µM [4] is on record?
Its inhibition at 3 µM is 78%.

With N#Cc1ncnc2c1ncn2CCCCCB(O)O [drawing 104] as the compound, how does the inhibition at 3 µM [3] read?
Its inhibition at 3 µM is -33%.

For C[C@@H]1CC2C3CCC4=CC(=O)C=CC4(C)C3(F)[C@@H](O)CC2(C)C1(O)C(=O)CO (stereo partly drawn) [drawing 102], which inhibition at 3 µM [3] is on record?
The inhibition at 3 µM was 67%.

Which inhibition at 3 µM (48 h, IL-4 secretion (h) (PBMC), ConA 20 μg/ml, 48 h) does the source give for Nc1nc(Cl)c2ncn(CCCCCB(O)O)c2n1 [drawing 89] here?
Its inhibition at 3 µM is -30%.
